Experimental data reported in paper PMC4501038 (RSC advances, 2015).
Where a name gives a salt, the structure may show the parent alone. Non-standard residues stand in square brackets, D forms with d. pGlu = O=C1CC[C@@H](C(=O)O)N1

What was measured:
[1] = biological target: central TRH receptors; settings: read-out: Ki, binding to central TRH receptors; cited from earlier work
[2] = biological target: TRH-DE; settings: read-out: Ki, inhibition of TRH-DE; cited from earlier work
[3] = tested on: rodents; settings: cited from earlier work
[4] = tested on: scopolamine-treated mice; assay: Scopolamine-induced memory impairment, Morris water maze; format: in vivo; settings: for working memory: escape latencies trial 1 vs trial 2: each day for four days, 6c 3.9 mg/kg, scopolamine 1 mg/kg
[5] = tested on: mice; assay: Functional observation battery; settings: mouse, in vivo
[6] = tested on: Swiss albino mice; assay: Reversal of pentobarbital-induced sleeping time; format: in vivo; settings: 10 μmol/kg i.v.
[7] = tested on: anesthetized mice; assay: Cerebral blood flow; format: in vivo; settings: 6c 3.9 mg/kg, % change from basal
[8] = tested on: anesthetized mice; assay: Cardiovascular parameters; settings: noradrenaline, dose not given
[9] = tested on: scopolamine-treated mice; assay: Scopolamine-induced memory impairment, passive avoidance test; format: in vivo; settings: rivastigmine (positive control) plus scopolamine

With [pGlu]NP[dY][dW]-NH2 as the compound, how does the Ki [1] read?
Its Ki is 6.8 nM.

What about the Ki [2] of the same compound?
Its Ki is 151 nM.

Which “doses producing CNS effects, times lower than TRH” value [3] does the source give for “[1-methyl-(S)-4,5-dihydroorotyl)]-L-His-L-ProNH2 [TAL]” here?
Its value is “about 100 times”.

And the “duration of antagonistic action on PB-induced sleep relative to TRH” value [3]?
Its value is “eight times longer”.

With CN1[C@@H]2C[C@@H](OC(=O)[C@H](CO)c3ccccc3)C[C@H]1[C@@H]1O[C@@H]12 [scopolamine, scopolamine hydrobromide] as the compound, how does the “area under curve of the escape latencies in four-day trial” value ([4]; dose study, scopolamine (1 mg/kg i.p.) alone) read?
The value was 337.5 ± 12.2 s.

And the “working memory: escape latencies trial 1 vs trial 2” value (“working memory … vs trial 2” for short) [4]?
Its value is “did not show any significant difference between two trials”.

With NC(=O)[C@@H]1CCCN1C(=O)[C@H](Cc1cnc[nH]1)NC(=O)[C@@H]1CCC(=O)N1 [TRH, pGlu-His-ProNH2] as the compound, how does the “working memory … vs trial 2” value [4] read?
The value was “significantly decrease in trial 2 compared to trial 1 on all four days”.

What about the FOB arousal [5] of the same compound?
The FOB arousal was “moderate arousal”.

And the “FOB gait and posture” value [5]?
The value was “normal till three hours”.

What about the FOB posture [5] of the same compound?
The FOB posture was “normal posture”.

And the FOB respiration [5]?
Its FOB respiration is “do not affect normal respiration”.

And the “FOB spontaneous activity in open field” value [5]?
The value was “do not increase spontaneous activity”.

And the “Sleeping duration (Mean± SEM)” value ([6]; pentobarbital 50 mg/kg i.p. 10 min later, mice)?
Its value is 53.9 ± 3.7 min.

And the “(%) Reduction in time” value ([6]; relative to control, pentobarbital 50 mg/kg i.p.)?
Its value is 42.5%.

And the “increase in cerebral blood flow” value [7]?
The value was 93.4±2.9%.

With NC[C@H](O)c1ccc(O)c(O)c1 [Noradrenaline] as the compound, how does the “Δ Heart Rate” value [8] read?
The value was 56.6±9 BPM.

What about the “Δ MAP” value [8] of the same compound?
The value was 42.8±2.2 mm Hg.

What about the “Δ mean Diastolic BP” value [8] of the same compound?
The value was 37.2±3.2 mm Hg.

And the “Δ mean Systolic BP” value [8]?
Its value is 54.1±1.7 mm Hg.

For CCN(C)C(=O)Oc1cccc([C@H](C)N(C)C)c1 [rivastigmine], which “working memory … vs trial 2” value [4] is on record?
The value was “significant effect on day 1, 2 and 3”.

And the “step through latency (retention)” value [9]?
Its value is 235.1 ± 27.6 s.
